Results on 29 molecules are retold here after patent US11840533B2, “Pyridinone-based epigenetic modifiers and uses thereof” (THE BOARD OF TRUSTEES OF THE UNIVERSITY OF ILLINOIS, priority 2017, dated 2023).

The test system of this test is fulvestrant-resistant MCF7:5C-FR cells. As to the kind of experiment: Fulvestrant-resistant breast cancer cell viability (cell proliferation) assay. Type of test: cell-based. Particulars: growth inhibition in fulvestrant-resistant MCF-7:CFR cells, 120 hrs. The essentials:
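Cells were treated the day after seeding with compounds at 3 nM to 10 uM for 120 h, with 0.1% DMSO vehicle and 1 uM JQ1 as positive control. Hoechst 33342-stained (5 μg/ml, 90 min, 37 C) nuclei were imaged and counted, and cell numbers normalized to vehicle.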

pIC50: −log10 of the molar value.

As for `CCS(=O)(=O)Nc1cc(-c2cn(C)c3c(O)nccc23)cc2c1ccn2[C@H](c1ccccc1)C1CCOCC1` [Compound 91, (S)-N-(6-(7-hydroxy-1-methyl-1H-pyrrolo[2,3-c]pyridin-3-yl)-1-(phenyl(tetrahydro-2H-pyran-4-yl)methyl)-1H-indol-4-yl)ethanesulfonamide], where the note is “120 h”, the pIC50 is above 6.00.

With `CCS(=O)(=O)Nc1cc(-c2cn(C)c3c(O)nccc23)cc2c1ccn2[C@@H](c1ccccc1)C1CCOCC1` [Compound 92, (R)-N-(6-(7-hydroxy-1-methyl-1H-pyrrolo[2,3-c]pyridin-3-yl)-1-(phenyl(tetrahydro-2H-pyran-4-yl)methyl)-1H-indol-4-yl)ethanesulfonamide], the negative-log IC50 (pIC50) (120 h) is above 6.00.

Molecule `CCS(=O)(=O)Nc1cc(-c2cn(CCCl)c3c(O)nccc23)cc2c1ccn2Cc1ccccc1` [Compound 95, N-(1-benzyl-6-(1-(2-chloroethyl)-7-hydroxy-1H-pyrrolo[2,3-c]pyridin-3-yl)-1H-indol-4-yl)ethanesulfonamide] had a pIC50 (120 h) below 7.00.

For the molecule `CCS(=O)(=O)Nc1cc(-c2cn(CCCl)c3c(O)nccc23)cc2c1ccn2Cc1c(C)cccc1C` [Compound 96, N-(6-(1-(2-chloroethyl)-7-hydroxy-1H-pyrrolo[2,3-c]pyridin-3-yl)-1-(2,6-dimethylbenzyl)-1H-indol-4-yl)ethanesulfonamide], the negative-log IC50 (pIC50) was below 7.00.

`C=CC(=O)Cn1cc(-c2cc(NS(C)(=O)=O)c3ccn(Cc4ccccc4)c3c2)c2ccnc(O)c21` [Compound 97, N-(1-benzyl-6-(7-hydroxy-1-(2-oxobut-3-en-1-yl)-1H-pyrrolo[2,3-c]pyridin-3-yl)-1H-indol-4-yl)methanesulfonamide] gave a pIC50 (120 h) below 7.00.

The molecule `CS(=O)(=O)Nc1cc(-c2cn(CC3CO3)c3c(O)nccc23)cc2c1ccn2Cc1ccccc1` (centres unmarked) [Compound 98, N-(1-benzyl-6-(7-hydroxy-1-(oxiran-2-ylmethyl)-1H-pyrrolo[2,3-c]pyridin-3-yl)-1H-indol-4-yl)methanesulfonamide] had a pIC50 (120 h) above 6.00.

`CS(=O)(=O)Nc1cc(-c2cn(CC(=O)CCl)c3c(O)nccc23)cc2c1ccn2Cc1ccccc1` [Compound 99, N-(1-benzyl-6-(1-(3-chloro-2-oxopropyl)-7-hydroxy-1H-pyrrolo[2,3-c]pyridin-3-yl)-1H-indol-4-yl)methanesulfonamide]: the negative-log IC50 (pIC50) (120 h) is above 6.00.

As for `Cn1cc(-c2cc(NS(C)(=O)=O)c3ccn(Cc4cccc(F)c4)c3c2)c2cc[nH]c(=O)c21` [Compound 100, N-(1-(3-fluorobenzyl)-6-(1-methyl-7-oxo-6,7-dihydro-1H-pyrrolo[2,3-c]pyridin-3-yl)-1H-indol-4-yl)methanesulfonamide], the negative logarithm of the IC50 (pIC50) (120 h) was above 6.00.

Molecule `Cc1cc(F)cc(C)c1Cn1ccc2c(NS(C)(=O)=O)cc(-c3cn(C)c4c(=O)[nH]ccc34)cc21` [Compound 101, N-(1-(4-fluoro-2,6-dimethylbenzyl)-6-(1-methyl-7-oxo-6,7-dihydro-1H-pyrrolo[2,3-c]pyridin-3-yl)-1H-indol-4-yl)methanesulfonamide] had a pIC50 (120 h) above 6.00.

Consider `CCS(=O)(=O)Nc1cc(-c2cn(C)c3c(=O)[nH]ccc23)cc2c1ccn2C(C)(c1nccs1)c1nccs1` [Compound 102, N-(1-(1,1-di(thiazol-2-yl)ethyl)-6-(1-methyl-7-oxo-6,7-dihydro-1H-pyrrolo[2,3-c]pyridin-3-yl)-1H-indol-4-yl)ethanesulfonamide], for which the negative-log IC50 (pIC50) (120 h) is above 6.00.

Molecule `CC(=O)Nc1cc(-c2cn(C)c3c(=O)[nH]ccc23)cc2c1ccn2Cc1cccc(F)c1` [Compound 103, N-(1-(3-fluorobenzyl)-6-(1-methyl-7-oxo-6,7-dihydro-1H-pyrrolo[2,3-c]pyridin-3-yl)-1H-indol-4-yl)acetamide] showed a pIC50 (120 h) above 6.00.

Molecule `CCC(=O)Nc1cc(-c2cn(C)c3c(=O)[nH]ccc23)cc2c1ccn2C(C)(c1cnccn1)c1cnccn1` [Compound 104, N-(1-(1,1-di(pyrazin-2-yl)ethyl)-6-(1-methyl-7-oxo-6,7-dihydro-1H-pyrrolo[2,3-c]pyridin-3-yl)-1H-indol-4-yl)propionamide] had a negative logarithm of the IC50 (pIC50) (120 h) above 6.00.

Turning to `Cn1cc(-c2cc(C(C)(C)O)c3ccn(CC4(C)COC4)c3c2)c2cc[nH]c(=O)c21` [Compound 105, 3-(4-(2-hydroxypropan-2-yl)-1-((3-methyloxetan-3-yl)methyl)-1H-indol-6-yl)-1-methyl-1,6-dihydro-7H-pyrrolo[2,3-c]pyridin-7-one], the pIC50 (120 h) was above 6.00.

For `Cn1cc(-c2cc(C(C)(C)O)c3ccn(CC4CC(F)(F)C4)c3c2)c2cc[nH]c(=O)c21` [Compound 106, 3-(1-((3,3-difluorocyclobutyl)methyl)-4-(2-hydroxypropan-2-yl)-1H-indol-6-yl)-1-methyl-1,6-dihydro-7H-pyrrolo[2,3-c]pyridin-7-one], the pIC50 (120 h) was above 6.00.

`Cn1cc(-c2cc(C(C)(C)O)c3ccn(Cc4cccc(F)c4)c3c2)c2cc[nH]c(=O)c21` [Compound 107, 3-(1-(3-fluorobenzyl)-4-(2-hydroxypropan-2-yl)-1H-indol-6-yl)-1-methyl-1,6-dihydro-7H-pyrrolo[2,3-c]pyridin-7-one] gave a negative-log IC50 (pIC50) (120 h) above 6.00.

As for `Cc1cc(F)cc(C)c1Cn1ccc2c(C(C)(C)O)cc(-c3cn(C)c4c(=O)[nH]ccc34)cc21` [Compound 108, 3-(1-(4-fluoro-2,6-dimethylbenzyl)-4-(2-hydroxypropan-2-yl)-1H-indol-6-yl)-1-methyl-1,6-dihydro-7H-pyrrolo[2,3-c]pyridin-7-one], the negative-log IC50 (pIC50) (120 h) is above 6.00.

`Cn1cc(-c2cc(C(C)(C)O)c3ccn(C(C)(c4cnccn4)c4cnccn4)c3c2)c2cc[nH]c(=O)c21` [Compound 109, 3-(1-(1,1-di(pyrazin-2-yl)ethyl)-4-(2-hydroxypropan-2-yl)-1H-indol-6-yl)-1-methyl-1,6-dihydro-7H-pyrrolo[2,3-c]pyridin-7-one] had a pIC50 (120 h) above 6.00.

Where the note is “120 h”, `Cn1ccnc1C(C)(c1nccn1C)n1ccc2c(C(C)(C)O)cc(-c3cn(C)c4c(=O)[nH]ccc34)cc21` [Compound 110, 3-(1-(1,1-bis(1-methyl-1H-imidazol-2-yl)ethyl)-4-(2-hydroxypropan-2-yl)-1H-indol-6-yl)-1-methyl-1,6-dihydro-7H-pyrrolo[2,3-c]pyridin-7-one] gave a pIC50 above 6.00.

Take `Cn1cc(-c2cc(C(C)(C)O)c3ccn(C(C)(c4nccs4)c4nccs4)c3c2)c2cc[nH]c(=O)c21` [Compound 111, 3-(1-(1,1-di(thiazol-2-yl)ethyl)-4-(2-hydroxypropan-2-yl)-1H-indol-6-yl)-1-methyl-1,6-dihydro-7H-pyrrolo[2,3-c]pyridin-7-one]: under “120 h”, the pIC50 is above 6.00.

For the setting “120 h”, `Cc1cccc(C)c1Cn1ccc2c(C(C)(C)O)cc(-c3cn(C)c4c(=O)[nH]ccc34)cc21` [Compound 113, 3-(1-(2,6-dimethylbenzyl)-4-(2-hydroxypropan-2-yl)-1H-indol-6-yl)-1-methyl-1,6-dihydro-7H-pyrrolo[2,3-c]pyridin-7-one] gave a pIC50 above 6.00.

Consider `Cc1cccc(Cl)c1Cn1ccc2c(C(C)(C)O)cc(-c3cn(C)c4c(=O)[nH]ccc34)cc21` [Compound 114, 3-(1-(2-chloro-6-methylbenzyl)-4-(2-hydroxypropan-2-yl)-1H-indol-6-yl)-1-methyl-1,6-dihydro-7H-pyrrolo[2,3-c]pyridin-7-one], for which, where the note is “120 h”, the pIC50 was above 6.00.

`CCS(=O)(=O)c1cccc2c1nc(-c1cn(C)c3c(O)nccc13)n2[C@H](c1ccccc1)C1CCOCC1` [Compound 115, (S)-3-(4-(ethylsulfonyl)-1-(phenyl(tetrahydro-2H-pyran-4-yl)methyl)-1H-benzo[d]imidazol-2-yl)-1-methyl-1H-pyrrolo[2,3-c]pyridin-7-ol] showed a negative logarithm of the IC50 (pIC50) (120 h) above 6.00.

The molecule `Cn1cc(-c2cc3c(C(C)(C)O)cccc3n2[C@@H](c2ccccc2)C2CCOCC2)c2ccnc(O)c21` [Compound 116, (R)-3-(4-(2-hydroxypropan-2-yl)-1-(phenyl(tetrahydro-2H-pyran-4-yl)methyl)-1H-indol-2-yl)-1-methyl-1H-pyrrolo[2,3-c]pyridin-7-ol] showed a negative-log IC50 (pIC50) (120 h) above 6.00.

As to `Cn1cc(-c2cc3c(C(C)(C)O)cccc3n2[C@H](c2ccccc2)C2CCOCC2)c2ccnc(O)c21` [Compound 117, (S)-3-(4-(2-hydroxypropan-2-yl)-1-(phenyl(tetrahydro-2H-pyran-4-yl)methyl)-1H-indol-2-yl)-1-methyl-1H-pyrrolo[2,3-c]pyridin-7-ol], the pIC50 (120 h) was above 6.00.

For the molecule `CC(=O)Nc1cccc2c1cc(-c1cn(C)c3c(O)nccc13)n2[C@@H](c1ccccc1)C1CCOCC1` [Compound 118, (R)-N-(2-(7-hydroxy-1-methyl-1H-pyrrolo[2,3-c]pyridin-3-yl)-1-(phenyl(tetrahydro-2H-pyran-4-yl)methyl)-1H-indol-4-yl)acetamide], the pIC50 (120 h) is above 6.00.

As to `CC(=O)Nc1cccc2c1cc(-c1cn(C)c3c(O)nccc13)n2[C@H](c1ccccc1)C1CCOCC1` [Compound 119, (S)-N-(2-(7-hydroxy-1-methyl-1H-pyrrolo[2,3-c]pyridin-3-yl)-1-(phenyl(tetrahydro-2H-pyran-4-yl)methyl)-1H-indol-4-yl)acetamide], under “120 h”, the pIC50 is above 6.00.

For the setting “120 h”, `CCS(=O)(=O)c1cccc2c1cc(-c1cn(C)c3c(O)nccc13)n2[C@H](c1ccccc1)C1CCOCC1` [Compound 120, (S)-3-(4-(ethylsulfonyl)-1-(phenyl(tetrahydro-2H-pyran-4-yl)methyl)-1H-indol-2-yl)-1-methyl-1H-pyrrolo[2,3-c]pyridin-7-ol] gave a pIC50 above 6.00.

On to `CCS(=O)(=O)c1cccc2c1cc(-c1cn(C)c3c(O)nccc13)n2[C@@H](c1ccccc1)C1CCOCC1` [Compound 121, (R)-3-(4-(ethylsulfonyl)-1-(phenyl(tetrahydro-2H-pyran-4-yl)methyl)-1H-indol-2-yl)-1-methyl-1H-pyrrolo[2,3-c]pyridin-7-ol], for which the pIC50 (120 h) is above 6.00.

As to `Cn1cc(-c2cc3c(NS(C)(=O)=O)cccc3n2[C@H](c2ccccc2)C2CCOCC2)c2ccnc(O)c21` [Compound 122, (S)-N-(2-(7-hydroxy-1-methyl-1H-pyrrolo[2,3-c]pyridin-3-yl)-1-(phenyl(tetrahydro-2H-pyran-4-yl)methyl)-1H-indol-4-yl)methanesulfonamide], the pIC50 (120 h) is above 6.00.

A word on the pIC50: it is −log10 of the IC50, conventionally taken in molar units. Low readings indicate a large IC50, high ones a small IC50.
